{"source": "patent US12084521B2", "about": "“TLR9 inhibitors to suppress inflammatory response to pathogens” (University Of Maryland, Baltimore, priority 2018, dated 2024)", "key": {"MyD88 TIR": {"molecular_target": "T1, MyD88 TIR (Homo sapiens, UniProt Q99836)", "T1 construct": "expressed in transfected cells; host or cells: HeLa", "T1 sequence (Q99836 159-293 limits assumed)": "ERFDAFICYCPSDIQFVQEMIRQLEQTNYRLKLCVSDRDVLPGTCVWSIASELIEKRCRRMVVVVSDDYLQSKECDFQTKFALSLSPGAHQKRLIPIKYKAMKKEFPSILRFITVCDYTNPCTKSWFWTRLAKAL", "assay": "FLIM/FRET binding of Cy3-labeled peptides to Cer-fused TIR in HeLa cells", "outline": "(§1)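 HeLa cells transiently expressing Cerulean-fused TIR domains were exposed to Cy3-labeled peptides at various concentrations for 1 h, then fixed. Donor lifetimes came from FLIM with single/bi-exponential fits, and FRET efficiency was calculated as E=1−τDA/τD from whole-image average lifetimes.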"}, "TIRAP TIR": {"molecular_target": "T2, TIRAP TIR (Homo sapiens, UniProt P58753)", "T2 construct": "fused with TLR9 TIR or TIRAP TIR; expressed in transfected cells; host or cells: HeLa", "T2 sequence (P58753 84-213 limits assumed)": "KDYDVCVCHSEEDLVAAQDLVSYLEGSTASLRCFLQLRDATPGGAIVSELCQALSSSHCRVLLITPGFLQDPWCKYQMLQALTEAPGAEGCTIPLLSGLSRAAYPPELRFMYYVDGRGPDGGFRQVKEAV", "assay": "FLIM/FRET binding of Cy3-labeled peptides to Cer-fused TIR in HeLa cells", "outline": "as §1"}, "TLR9 TIR": {"molecular_target": "T3, TLR9 TIR (Homo sapiens, UniProt Q9NR96)", "T3 construct": "expressed in transfected cells; host or cells: HeLa", "T3 sequence (Q9NR96 868-1013 limits assumed)": "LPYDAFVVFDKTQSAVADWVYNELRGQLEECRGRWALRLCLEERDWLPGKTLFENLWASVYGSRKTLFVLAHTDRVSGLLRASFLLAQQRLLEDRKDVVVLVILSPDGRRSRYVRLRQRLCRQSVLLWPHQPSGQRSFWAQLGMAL", "assay": "FLIM/FRET binding of Cy3-labeled peptides to Cer-fused TIR in HeLa cells", "outline": "as §1"}, "[1]": {"assay": "Stability and solubility of peptide solutions"}, "TLR9 signaling": {"system": "TLR9 signaling", "assay": "ODN 1668-induced cytokine mRNA expression in BMDM (quantitative real time PCR)", "assay_type": "cell-based, mouse", "conditions": "BMDM; for inhibition of TLR9 signaling (ODN 1668-induced cytokine mRNA, overall): peptide 10, 20 or 40 μM, ODN 1668 1 μM", "procedure": "The cDNA obtained was amplified with gene-specific primers for mouse HPRT, TNFα, IL-10, IL-12-p40, or IL-6 and Fast SYBR Green™ master mix (Applied Biosystemsm) as previously described.\nMouse BMDMs were incubated in the presence of a 10, 20 or 40 μM decoy peptide for 30 minutes prior to stimulation with ODN 1668 (1 μM). […] Data represent the means±SEM of at least three independent experiments. The statistical significance of changes in cytokine mRNA was determined by a one-way ANOVA test; *p<0.001. Peptides 9R3 and 9R34 have overlapping sequences (see Table 1).\nTo investigate inhibition of TLR9 signaling by 9R34 analogues, the following work was performed. Mouse BMDMs were incubated in the presence of a 10, 20 or 40 μM decoy peptide for 30 minutes prior to stimulation with ODN 1668 (1 μM). Cytokine mRNA expression was measured 1 hour after ODN 1668 challenge and normalized to the expression of HPRT. See also Table 1. Data represent means±SEM of at least three independent experiments."}, "[2]": {"conditions": "peptide 10, 20 or 40 μM 30 min before ODN 1668 (1 μM), 1 hour, normalized to HPRT"}}, "note": "“Also recorded” adds a separate entry of the source."}
{"sequence": "ALRLCLEERD [Peptide 9R34-ΔN]", "values": [{"measurement": "interaction with MyD88 TIR (FLIM summary)", "setting": "MyD88 TIR", "value": "did not interact"}, {"measurement": "binding to TIRAP TIR (FLIM summary)", "setting": "TIRAP TIR", "value": "bind"}, {"measurement": "binding to TLR9 TIR (FLIM summary)", "setting": "TLR9 TIR", "value": "bind"}, {"measurement": "concentration up to which stock solutions were stable", "setting": "[1]", "value": "up to 10 mM"}, {"measurement": "inhibition of TLR9 signaling (ODN 1668-induced cytokine mRNA, overall)", "setting": "TLR9 signaling", "value": "as potent as the parent peptide; also recorded: inhibited TLR9 signaling more potently than 9R3"}]}
{"sequence": "RSFWAQLGMALTRD (Synthetic peptide 9R11)", "values": [{"measurement": "interaction with MyD88 TIR (FLIM summary)", "setting": "MyD88 TIR", "value": "interacted with the MyD88 TIR, but with a lower affinity"}, {"measurement": "binding to TIRAP TIR (FLIM summary)", "setting": "TIRAP TIR", "value": "bind"}, {"measurement": "binding to TLR9 TIR (FLIM summary)", "setting": "TLR9 TIR", "value": "bind"}, {"measurement": "TNFα mRNA expression", "setting": "TLR9 signaling; peptide 10, 20 or 40 μM 30 min before ODN 1668 (1 μM), 1 hour after stimulation, normalized to HPRT", "value": "significantly suppressed"}, {"measurement": "IL-10 mRNA expression", "setting": "TLR9 signaling; [2]", "value": "significantly suppressed"}, {"measurement": "IL-12-p40 mRNA expression", "setting": "TLR9 signaling; [2]", "value": "significantly suppressed"}, {"measurement": "inhibition of TLR9 signaling (ODN 1668-induced cytokine mRNA, overall)", "setting": "TLR9 signaling", "value": "inhibit TLR9 signaling"}]}
